Results as given in patent publication US12077503B2, “Substituted cyclic amides and their use as herbicides” (FMC CORPORATION, priority 2015, dated 2024).
Like-named read-outs stand apart in the source and are kept apart here.

What was measured:
Format in all cases: in vivo
[1] = test system: giant foxtail (Setaria faberii); assay: Test A postemergence; details: Setaria faberi, post-emergence, 240 h, 125 g ai/ha, Postemergence; visual injury after approximately 10 d; 0 to 100 scale where 0 is no effect and 100 is complete control; read-out: Plant response rating, Foxtail, Giant
Summary of the method: (§1)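 In a loam soil and sand blend, planted seeds got a preemergence directed soil spray, and young plants at the one- to two-leaf stage, 2–10 cm high, got a postemergence application; ~10 d greenhouse hold; injury rated visually, 0 = none, 100 = complete control.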

Kochia (Kochia scoparia) [2] = assay: Test A postemergence; details: Bassia scoparia, post-emergence, 240 h, 125 g ai/ha, Postemergence; visual injury after approximately 10 d; 0 to 100 scale where 0 is no effect and 100 is complete control; read-out: Plant response rating, Kochia
Summary of the method: as §1

[3] = test system: barnyardgrass (Echinochloa crus-galli); assay: Test A postemergence; details: Echinochloa crus-galli, post-emergence, 240 h, 125 g ai/ha, Postemergence; visual injury after approximately 10 d; 0 to 100 scale where 0 is no effect and 100 is complete control; read-out: Plant response rating, Barnyardgrass
Summary of the method: as §1

[4] = test system: ragweed (common ragweed, Ambrosia elatior); assay: Test A postemergence; details: Ambrosia artemisiifolia, post-emergence, 240 h, 125 g ai/ha, Postemergence; visual injury after approximately 10 d; 0 to 100 scale where 0 is no effect and 100 is complete control; read-out: Plant response rating, Ragweed
Summary of the method: as §1

[5] = test system: giant foxtail (Setaria faberii); assay: Test A preemergence; details: Setaria faberi, pre-emergence, 240 h; for pest or weed control at 125 g/ha: 125 g ai/ha, Preemergence, visual injury rating after approximately 10 d, read-out: Foxtail, Giant plant response rating (0 to 100 scale, 0 is no effect, 100 is complete control); for pest or weed control at 500 g/ha: 500 g ai/ha, preemergence, visual injury rating about 10 d after treatment, 0 to 100 scale (0 no effect, 100 complete control), read-out: Foxtail, Giant plant response rating
Summary of the method: as §1

Kochia (Kochia scoparia) [6] = assay: Test A preemergence; details: Bassia scoparia, pre-emergence, 240 h; for pest or weed control at 125 g/ha: 125 g ai/ha, Preemergence, visual injury rating after approximately 10 d, read-out: Kochia plant response rating (0 to 100 scale, 0 is no effect, 100 is complete control); for pest or weed control at 500 g/ha: 500 g ai/ha, preemergence, visual injury rating about 10 d after treatment, 0 to 100 scale (0 no effect, 100 complete control), read-out: Kochia plant response rating
Summary of the method: as §1

[7] = test system: pigweed (Amaranthus retroflexus); assay: Test A preemergence; details: Amaranthus retroflexus, pre-emergence, 240 h; for pest or weed control at 125 g/ha: 125 g ai/ha, Preemergence, visual injury rating after approximately 10 d, read-out: Pigweed plant response rating (0 to 100 scale, 0 is no effect, 100 is complete control); for pest or weed control at 500 g/ha: 500 g ai/ha, preemergence, visual injury rating about 10 d after treatment, 0 to 100 scale (0 no effect, 100 complete control), read-out: Pigweed plant response rating
[8] = test system: barnyardgrass (Echinochloa crus-galli); assay: Test A preemergence; details: Echinochloa crus-galli, pre-emergence, 240 h; for pest or weed control at 125 g/ha: 125 g ai/ha, Preemergence, visual injury rating after approximately 10 d, read-out: Barnyardgrass plant response rating (0 to 100 scale, 0 is no effect, 100 is complete control); for pest or weed control at 500 g/ha: 500 g ai/ha, preemergence, visual injury rating about 10 d after treatment, 0 to 100 scale (0 no effect, 100 complete control), read-out: Barnyardgrass plant response rating
Summary of the method: as §1

[9] = test system: ryegrass, Italian (Italian ryegrass, Lolium multiflorum); assay: Test A preemergence; details: Lolium multiflorum, pre-emergence, 240 h; for pest or weed control at 125 g/ha: 125 g ai/ha, Preemergence, visual injury rating after approximately 10 d, read-out: Ryegrass, Italian plant response rating (0 to 100 scale, 0 is no effect, 100 is complete control); for pest or weed control at 500 g/ha: 500 g ai/ha, preemergence, visual injury rating about 10 d after treatment, 0 to 100 scale (0 no effect, 100 complete control), read-out: Ryegrass, Italian plant response rating
Summary of the method: as §1

[10] = test system: ragweed (common ragweed, Ambrosia elatior); assay: Test A preemergence; details: Ambrosia artemisiifolia, pre-emergence, 240 h; for pest or weed control at 125 g/ha: 125 g ai/ha, Preemergence, visual injury rating after approximately 10 d, read-out: Ragweed plant response rating (0 to 100 scale, 0 is no effect, 100 is complete control); for pest or weed control at 500 g/ha: 500 g ai/ha, preemergence, visual injury rating about 10 d after treatment, 0 to 100 scale (0 no effect, 100 complete control), read-out: Ragweed plant response rating
Summary of the method: as §1

[11] = test system: ducksalad (Heteranthera limosa); assay: Test B flooded paddy test; details: Heteranthera limosa, Flood, 250 g ai/ha; scale of 0 to 100 where 0 is no effect and 100 is complete control; read-out: Ducksalad plant response rating
Summary of the method: (§2)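 Evaluation by eye, against controls, occurred 13–15 d post-treatment in a greenhouse, using a 0 (no effect) to 100 (complete control) scale. Application was into the paddy water, 3 cm deep over the soil, on 2-leaf plants.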

[12] = test system: barnyardgrass (Echinochloa crus-galli); assay: Test B flooded paddy test; details: Echinochloa crus-galli, Flood, 250 g ai/ha; scale of 0 to 100 where 0 is no effect and 100 is complete control; read-out: Barnyardgrass plant response rating
Summary of the method: as §2

rice (Oryra sativa) = assay: Test B flooded paddy test; details: Oryza sativa, Flood, 250 g ai/ha; scale of 0 to 100 where 0 is no effect and 100 is complete control; read-out: Rice plant response rating
Summary of the method: as §2

[13] = test system: sedge, umbrella (small-flower umbrella sedge, Cyperus difformis); assay: Test B flooded paddy test; details: Cyperus difformis, Flood, 250 g ai/ha, read-out: Sedge, Umbrella plant response rating
Summary of the method: as §2

[14] = scale of 0 to 100 where 0 is no effect and 100 is complete control
[15] = 0 to 100 scale where 0 is no effect and 100 is complete control

SMILES	pest or weed control at 125 g/ha [1] [%]	pest or weed control at 125 g/ha (Kochia (Kochia scoparia) [2]) [%]	pest or weed control at 125 g/ha [3] [%]	pest or weed control at 125 g/ha [4] [%]	pest or weed control at 125 g/ha [5] [%]	pest or weed control at 500 g/ha [5] [%]	pest or weed control at 125 g/ha (Kochia (Kochia scoparia) [6]) [%]	pest or weed control at 500 g/ha (Kochia (Kochia scoparia) [6]) [%]	pest or weed control at 125 g/ha [7] [%]	pest or weed control at 500 g/ha [7] [%]	pest or weed control at 125 g/ha [8] [%]	pest or weed control at 500 g/ha [8] [%]	pest or weed control at 125 g/ha [9] [%]	pest or weed control at 500 g/ha [9] [%]	pest or weed control at 125 g/ha [10] [%]	pest or weed control at 500 g/ha [10] [%]	pest or weed control at 250 g/ha [11] [%]	pest or weed control at 250 g/ha [12] [%]	pest or weed control at 250 g/ha (rice (Oryra sativa)) [%]	pest or weed control at 250 g/ha [13, 14] [%]	also measured
Cc1ccc([C@H]2CNC(=S)[C@@H]2C(=O)Nc2ccccc2F)cc1 (racemic) [Compound 945]	0	0	80	0	0	70	0	0	0	0	60	90	0	0	0	0	85	0	0	0	–
Cc1ccc([C@H]2CNC(=S)[C@@H]2C(=O)Nc2cccc(F)c2F)cc1 (racemic) [Compound 946]	0	0	60	0	0	20	0	50	0	0	60	80	0	0	0	0	0	0	0	0	–
Cc1ccc([C@H]2CCNC(=O)[C@@H]2C(=O)Nc2cccc(F)c2F)cc1 [Compound 973]	70	–	30	0	90	90	0	60	0	0	90	90	0	30	0	70	100	0	0	0	–
CSc1ccccc1NC(=O)[C@H]1C(=O)NC[C@@H]1c1cc(F)cc(Cl)c1 [Compound 977]	90	70	–	20	90	90	90	90	40	70	90	90	0	40	70	100	100	15	15	0	–
CN1C[C@H](c2cc(F)cc(Cl)c2)[C@@H](C(=O)Nc2ccccc2S(C)(=O)=O)C1=O [Compound 979]	90	30	–	20	90	100	50	90	40	90	90	90	50	60	50	90	100	60	0	0	–
COc1ccc([C@H]2CN(C)C(=O)[C@@H]2C(=O)Nc2ccccc2SC)cc1C(F)(F)F [Compound 991]	80	–	30	0	90	90	0	60	60	50	70	90	0	50	0	30	40	0	15	–	pest or weed control at 250 g/ha [13, 15]: 0%
CN1C[C@H](c2cc(F)cc(F)c2)[C@@H](C(=O)Nc2cc(O)ccc2F)C1=O [Compound 992]	0	–	0	0	0	0	0	0	0	0	0	0	0	0	0	0	0	0	0	–	pest or weed control at 250 g/ha [13, 15]: 0%
